Source: ChEMBL document CHEMBL1781901, “Toluidinesulfonamide hypoxia-induced factor 1 inhibitors: alleviating drug-drug interactions through use of PubChem data and comparative molecular field analysis guided synthesis” (J Med Chem, 2011)

Experiments:
[1] = Inhibition of HIF-1 in human deferoxamine treated HCT-116 cells expressing HRE-bla gene pretreated for 30 mins before deferoxamine challenge measured after 24 hrs by fluorometric analysis; format: cell-based
Cytochrome P450 2C9 = Cytochrome P450 2C9 (Homo sapiens, UniProt P11712); assay: Inhibition of CYP2C9 after 30 mins by luminescence assay; format: ADME
Sequence of Cytochrome P450 2C9 (P11712 whole entry): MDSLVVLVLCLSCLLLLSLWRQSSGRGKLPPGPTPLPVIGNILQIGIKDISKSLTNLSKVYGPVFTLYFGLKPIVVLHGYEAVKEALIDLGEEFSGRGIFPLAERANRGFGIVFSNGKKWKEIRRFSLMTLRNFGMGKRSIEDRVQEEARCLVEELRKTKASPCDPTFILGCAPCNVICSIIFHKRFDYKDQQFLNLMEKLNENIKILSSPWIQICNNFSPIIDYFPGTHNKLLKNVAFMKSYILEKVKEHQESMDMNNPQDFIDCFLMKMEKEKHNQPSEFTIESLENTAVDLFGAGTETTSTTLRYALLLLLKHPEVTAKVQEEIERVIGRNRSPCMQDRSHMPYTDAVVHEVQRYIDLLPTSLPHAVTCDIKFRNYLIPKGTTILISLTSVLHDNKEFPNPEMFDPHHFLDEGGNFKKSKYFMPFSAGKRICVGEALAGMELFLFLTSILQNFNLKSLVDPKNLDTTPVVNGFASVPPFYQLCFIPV

Structure (SMILES) | pIC50 [1] | EC50 (Cytochrome P450 2C9)
COC(=O)c1ccc(C)c(NS(=O)(=O)c2ccc(OC)cc2)c1 | 7.2 | 3.98 µM
COC(=O)c1ccc(OC)c(NS(=O)(=O)c2ccc(OC)cc2)c1 | 5.5 | 39.8 µM
COC(=O)c1ccc(C)c(N(C)S(=O)(=O)c2ccc(C)cc2)c1 | 5.8 | 15.8 µM
COC(=O)c1ccc2c(c1)N(S(=O)(=O)c1ccc(C)cc1)CCO2 | 7 | 3.98 µM

The remaining compounds from weak to strong by EC50 (Cytochrome P450 2C9), led by results:

pIC50 [1] | EC50 (Cytochrome P450 2C9) | Structure (SMILES)
6.2 | 25.1 µM | COC(=O)c1ccc(C)c(N(C)S(=O)(=O)c2ccc(OC)cc2)c1
< 5 | 2.51 µM | COC(=O)c1ccc(C)c(NS(=O)(=O)c2ccc(OC)c(OC)c2)c1
7.4 | 1.58 µM | COC(=O)c1ccc(C)c(NS(=O)(=O)c2ccc(C)cc2)c1
4.7 | 0.251 µM | COC(=O)c1ccc(C)c(NS(=O)(=O)c2ccc(NC(C)=O)cc2)c1
